Reference: PMC5516028, “Molecular tools for GABAA receptors: High affinity ligands for β1-containing subtypes” (Scientific Reports, 2017)

How the values were obtained:
Format in all cases: cell-based
α1β3γ2 GABAA receptors = target: T1, α1β3γ2 GABAA receptors (Rattus norvegicus, UniProt P62813+P63079); assay: Two electrode voltage clamp in Xenopus laevis oocytes, α1β3γ2
T1 construct: expressed in transfected cells; host or cells: Xenopus laevis oocytes, mRNA injected
Text: (§1) cDNA’s of rat GABAA receptor subunits α1, α4, β1, β2, β3 and γ2S were cloned as described. cDNAs of the rat subunits α2, α3 and α5 were gifts from P. Malherbe, that of α6 and γ1 were gifts of P. Seeburg and that of δ was a gift of C. Czajkowski. The mutants were constructed using the Q5 Site-Directed Mutagenesis Kit (New England Biolabs) following manufacturer’s instruction. We used the wild-type rat β3-pCI vector as template and the primers […] and […] resulting in a substitution of amino acid N41 (AAC) to R (AGG). We used the wild-type rat β1-pCI vector as template and the primers […] and […] resulting in a substitution of amino acid R41 (CGG) to N (AAC). The mutated subunits were confirmed by sequencing.
(§2) In vitro transcription of mRNA was based on the cDNA expression vectors encoding for rat GABAA receptor subunits α1–6, β1-3, γ1,2, δ and the two β mutants (β1R41N and β3N41R)[40]. After linearizing the cDNA vectors with appropriate restriction endonucleases, the cDNA was purified and concentrated with the DNA Clean and Contentrator ^TM Kit (Zymoresearch, Catalog No. D4005). Capped transcripts of the purified cDNA were produced using the mMESSAGE mMACHINE® T7 transcription kit (Ambion, TX, USA) and polyadenylated using the Ambion PolyA tailing kit (Ambion). After transcription and polyadenylation the RNA was purified with the MEGAclear ^TM Kit (Ambion, Catalog No. AM1908). The final RNA concentration was measured on NanoDrop® ND-1000 and finally diluted and stored in diethylpyrocarbonate-treated water at −80 °C. For the microinjection, the RNA of αβ receptor combinations was mixed at 1:1 ratio (which leads to αβ receptors that consist of predominantly 3 beta and 2 alpha subunits[27]), for αkβlγm (k = 1–3, l = 1, 3, m = 1, 2) receptors at 1:1:5 ratio, for αkβ3γ2 (k = 4–6) and αkβlδ (k = 1, 4 and 6, l = 1, 3) receptor combinations at 3:1:5 ratio.
(§3) Mature female Xenopus laevis (Nasco, WI) were anesthetized in a bath of ice-cold 0.17% Tricain (Ethyl-m-aminobenzoate, Sigma, MO) before decapitation in full accordance with all rules of the Austrian animal protection law (see http://www.ris.bka.gv.at/Dokumente/BgblAuth/BGBLA_2012_I_114/BGBLA_2012_I_114.pdf) and the Austrian animal experiment by-laws (see https://www.ris.bka.gv.at/Dokumente/BgblAuth/BGBLA_2012_II_522/BGBLA_2012_II_522.pdf) which implement the European Directive 2010/63/EU (see http://eur-lex.europa.eu/LexUriServ/LexUriServ.do?uri=OJ:L:2010:276:0033:0079:en:PDF) into the Austrian law (all information accessed on July 27, 2016). The frog’s ovaries were transferred to ND96 medium (96 mM NaCl, 2 mM KCl, 1 mM MgCl2, 5 mM HEPES; pH 7.5). Stage 5–6 oocytes with the follicle cell layer around them were roughly dissected with forceps into packages of 10–15 cells and washed in Ca^2+-free ND96 medium. Cells were then digested with collagenase (type IA, Sigma, NO, 1 mg/mL ND96) at 18 °C shaking at 30 rpm for 30–60 minutes and gently defolliculated with the aid of a glass pipette with appropriate tip diameter and a platinum loop. Defolliculated cells were stored at 18 °C for at least 6 hours in ND96 solution containing penicillin G (10000 IU/100 mL) and streptomycin (10 mg/100 mL) in order to preselect and exclude damaged cells from further treatment. Healthy defolliculated oocytes were injected with an aqueous solution of mRNA. A total of 4.5 ng of mRNA per oocyte was injected with a Nanoject II (Drummond). After injection of mRNA, oocytes were incubated at 18 °C (ND96 + antibiotic) for 2–3 days for αβ receptors and for 3–4 days for αβγ or αβδ receptors before recording. When cells were measured at later time points, oocytes were stored at +4 °C instead of 18 °C.
(§4) For electrophysiological recordings, oocytes were placed on a nylon-grid in a bath of Ca^2+-containing NDE solution medium [96 mM NaCl, 5 mM HEPES-NaOH (pH 7.5), 2 mM KCl, 1 mM MgCl2, 1.8 mM CaCl2].

α2β3γ2 GABAA receptors = target: T2, α2β3γ2 GABAA receptors (Rattus norvegicus, UniProt P23576+P63079); assay: Two electrode voltage clamp in Xenopus laevis oocytes, α2β3γ2
T2 construct: expressed in transfected cells; host or cells: Xenopus laevis oocytes, mRNA injected
Text: as §1, §2, §3, §4

α3β3γ2 GABAA receptors = target: T3, α3β3γ2 GABAA receptors (Rattus norvegicus, UniProt P20236+P63079); assay: Two electrode voltage clamp in Xenopus laevis oocytes, α3β3γ2
T3 construct: expressed in transfected cells; host or cells: Xenopus laevis oocytes, mRNA injected
Text: as §1, §2, §3, §4

α6β3γ2 GABAA receptors = target: T4, α6β3γ2 GABAA receptors (Rattus norvegicus, UniProt P30191+P63079); assay: Two electrode voltage clamp in Xenopus laevis oocytes, α6β3γ2
T4 construct: expressed in transfected cells; host or cells: Xenopus laevis oocytes, mRNA injected
Text: as §1, §2, §3, §4

α2β3 GABAA receptors = target: T5, α2β3 GABAA receptors (Rattus norvegicus, UniProt P23576+P63079); assay: Two electrode voltage clamp in Xenopus laevis oocytes, α2β3; conditions: α2β3
T5 construct: expressed in transfected cells; host or cells: Xenopus laevis oocytes, mRNA injected
Text: as §1, §2, §3, §4

α5β3 GABAA receptors = target: T6, α5β3 GABAA receptors (Rattus norvegicus, UniProt P19969+P63079); assay: Two electrode voltage clamp in Xenopus laevis oocytes, α5β3
T6 construct: expressed in transfected cells; host or cells: Xenopus laevis oocytes, mRNA injected
Text: as §1, §2, §3, §4

[1] = read-out: efficacy, % of control current (GABA EC3-5 = 100%), 1 nM
[2] = read-out: efficacy, % of control current (GABA EC3-5 = 100%), 10 nM
[3] = read-out: efficacy, % of control current (GABA EC3-5 = 100%), 100 nM
[4] = read-out: efficacy, % of control current (GABA EC3-5 = 100%), 300 nM
[5] = read-out: efficacy, % of control current (GABA EC3-5 = 100%), 1 µM
[6] = read-out: efficacy, % of control current (GABA EC3-5 = 100%), 10 µM

T5 sequence (P23576 29-451): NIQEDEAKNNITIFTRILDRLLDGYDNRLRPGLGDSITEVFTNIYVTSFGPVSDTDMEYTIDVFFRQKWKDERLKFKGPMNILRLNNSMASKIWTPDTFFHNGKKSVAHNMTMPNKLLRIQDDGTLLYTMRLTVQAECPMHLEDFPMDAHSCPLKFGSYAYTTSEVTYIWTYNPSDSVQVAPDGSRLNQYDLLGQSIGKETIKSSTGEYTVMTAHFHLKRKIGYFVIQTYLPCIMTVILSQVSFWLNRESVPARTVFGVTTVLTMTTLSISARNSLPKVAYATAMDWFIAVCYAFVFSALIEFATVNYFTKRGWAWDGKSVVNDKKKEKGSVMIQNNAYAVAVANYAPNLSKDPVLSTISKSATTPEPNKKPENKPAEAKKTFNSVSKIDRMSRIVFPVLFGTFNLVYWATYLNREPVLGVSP
T5 sequence (P63079 26-473): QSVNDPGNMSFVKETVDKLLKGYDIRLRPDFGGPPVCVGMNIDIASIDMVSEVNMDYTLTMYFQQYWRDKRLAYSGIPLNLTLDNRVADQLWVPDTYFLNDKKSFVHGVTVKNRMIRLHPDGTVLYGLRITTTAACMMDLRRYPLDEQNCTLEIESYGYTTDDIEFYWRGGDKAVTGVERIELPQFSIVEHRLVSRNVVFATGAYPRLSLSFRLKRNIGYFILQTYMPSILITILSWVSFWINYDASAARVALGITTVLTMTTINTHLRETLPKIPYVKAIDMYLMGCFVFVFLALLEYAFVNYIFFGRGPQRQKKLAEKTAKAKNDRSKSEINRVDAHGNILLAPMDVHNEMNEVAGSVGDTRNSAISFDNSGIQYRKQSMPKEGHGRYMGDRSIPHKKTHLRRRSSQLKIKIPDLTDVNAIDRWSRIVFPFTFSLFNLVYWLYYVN
T2 sequence (P23576 29-451): as the sequence (P23576 29-451) above
T2 sequence (P63079 26-473): as the sequence (P63079 26-473) above
T2 sequence (P18508 39-466 partner): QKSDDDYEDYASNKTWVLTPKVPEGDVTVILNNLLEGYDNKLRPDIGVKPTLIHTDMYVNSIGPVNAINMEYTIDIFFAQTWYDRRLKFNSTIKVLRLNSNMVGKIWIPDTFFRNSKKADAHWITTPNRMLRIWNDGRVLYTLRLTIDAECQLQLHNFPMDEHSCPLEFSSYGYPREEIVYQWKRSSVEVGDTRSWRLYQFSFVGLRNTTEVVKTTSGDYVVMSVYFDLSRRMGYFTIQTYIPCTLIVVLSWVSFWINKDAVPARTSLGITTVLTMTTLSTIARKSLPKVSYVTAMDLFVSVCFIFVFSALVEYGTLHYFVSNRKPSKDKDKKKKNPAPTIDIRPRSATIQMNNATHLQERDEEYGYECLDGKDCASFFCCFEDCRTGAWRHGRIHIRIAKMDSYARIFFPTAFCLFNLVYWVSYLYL
T4 sequence (P30191 20-453): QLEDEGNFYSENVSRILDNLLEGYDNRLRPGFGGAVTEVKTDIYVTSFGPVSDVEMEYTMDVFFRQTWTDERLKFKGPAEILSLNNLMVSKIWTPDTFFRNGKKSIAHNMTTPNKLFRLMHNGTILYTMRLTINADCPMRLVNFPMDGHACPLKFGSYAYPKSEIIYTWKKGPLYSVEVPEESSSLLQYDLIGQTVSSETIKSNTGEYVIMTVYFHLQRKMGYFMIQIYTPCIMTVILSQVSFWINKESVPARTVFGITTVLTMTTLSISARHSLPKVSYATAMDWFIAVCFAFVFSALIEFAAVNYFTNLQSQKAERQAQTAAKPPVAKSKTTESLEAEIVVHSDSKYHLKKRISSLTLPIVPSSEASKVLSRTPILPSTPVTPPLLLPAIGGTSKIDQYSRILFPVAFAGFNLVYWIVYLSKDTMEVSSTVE
T4 sequence (P63079 26-473): as the sequence (P63079 26-473) above
T4 sequence (P18508 39-466 partner): as the sequence (P18508 39-466 partner) above
T1 sequence (P62813 28-455): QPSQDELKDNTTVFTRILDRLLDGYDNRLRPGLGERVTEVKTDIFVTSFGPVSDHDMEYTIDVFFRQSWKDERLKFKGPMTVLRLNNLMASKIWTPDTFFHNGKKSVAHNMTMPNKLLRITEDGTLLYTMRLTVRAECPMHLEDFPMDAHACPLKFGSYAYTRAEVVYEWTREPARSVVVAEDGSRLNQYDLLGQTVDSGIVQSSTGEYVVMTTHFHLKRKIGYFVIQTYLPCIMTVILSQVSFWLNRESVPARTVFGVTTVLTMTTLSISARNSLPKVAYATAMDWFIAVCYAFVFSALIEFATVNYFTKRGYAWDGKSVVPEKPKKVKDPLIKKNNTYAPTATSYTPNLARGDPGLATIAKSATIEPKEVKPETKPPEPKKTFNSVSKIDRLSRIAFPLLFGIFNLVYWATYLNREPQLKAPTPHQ
T1 sequence (P63079 26-473): as the sequence (P63079 26-473) above
T1 sequence (P18508 39-466 partner): as the sequence (P18508 39-466 partner) above
T6 sequence (P19969 32-464 limits assumed): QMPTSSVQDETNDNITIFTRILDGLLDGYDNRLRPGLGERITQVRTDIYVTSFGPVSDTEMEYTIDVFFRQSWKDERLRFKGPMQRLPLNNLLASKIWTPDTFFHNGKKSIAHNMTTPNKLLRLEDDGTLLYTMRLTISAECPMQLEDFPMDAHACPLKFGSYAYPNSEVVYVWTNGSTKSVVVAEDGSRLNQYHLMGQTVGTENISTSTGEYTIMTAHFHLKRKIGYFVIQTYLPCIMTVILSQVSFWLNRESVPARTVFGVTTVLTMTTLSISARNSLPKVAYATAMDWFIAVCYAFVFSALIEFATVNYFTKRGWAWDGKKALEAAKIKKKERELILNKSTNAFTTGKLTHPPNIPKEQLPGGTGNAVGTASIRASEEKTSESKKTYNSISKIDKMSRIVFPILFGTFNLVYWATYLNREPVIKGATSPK
T6 sequence (P63079 26-473): as the sequence (P63079 26-473) above
T3 sequence (P20236 29-493): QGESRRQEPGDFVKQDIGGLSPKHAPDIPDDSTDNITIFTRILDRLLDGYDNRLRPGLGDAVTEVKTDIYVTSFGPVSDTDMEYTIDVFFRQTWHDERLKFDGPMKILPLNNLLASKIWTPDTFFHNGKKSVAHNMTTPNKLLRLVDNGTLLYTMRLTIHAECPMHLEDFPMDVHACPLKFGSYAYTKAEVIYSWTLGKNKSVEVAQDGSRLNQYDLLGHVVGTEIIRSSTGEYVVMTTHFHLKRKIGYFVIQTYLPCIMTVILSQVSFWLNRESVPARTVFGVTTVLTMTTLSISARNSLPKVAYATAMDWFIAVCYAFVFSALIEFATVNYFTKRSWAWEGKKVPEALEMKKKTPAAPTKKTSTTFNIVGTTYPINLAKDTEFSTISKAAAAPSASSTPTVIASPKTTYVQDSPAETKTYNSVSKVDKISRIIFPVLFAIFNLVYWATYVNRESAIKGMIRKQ
T3 sequence (P63079 26-473): as the sequence (P63079 26-473) above
T3 sequence (P18508 39-466 partner): as the sequence (P18508 39-466 partner) above

Compound `Cc1ccc(-n2nc3c4cc(Cl)ccc4[nH]cc-3c2=O)cc1` [Compound 2, 8-Chloro-2-(4-methylphenyl)-2H-pyrazolo[4,3-c]quinolin-3(5H)-one] has an EC50 (α1β3γ2 GABAA receptors; co-applied with GABA EC3-5, read-out: EC50) of 4.4 µM, an activity at 0.001 µM (α1β3γ2 GABAA receptors; [1]) of 100% and an activity at 0.01 µM (α1β3γ2 GABAA receptors; [2]) of 108 ± 4%. For the same compound, the activity at 0.1 µM (α1β3γ2 GABAA receptors; [3]) was 108 ± 4%, the activity at 0.3 µM (α1β3γ2 GABAA receptors; [4]) was 128 ± 5.6% and the activity at 1 µM (α1β3γ2 GABAA receptors; [5]) was 156 ± 19%. For the same compound, the activity at 10 µM (α1β3γ2 GABAA receptors; [6]) was 423 ± 106%, the activity at 30 µM (α1β3γ2 GABAA receptors; read-out: efficacy, % of control current (GABA EC3-5 = 100%), 30 µM) was 534 ± 136% and the Emax (α1β3γ2 GABAA receptors; read-out: maximum efficacy / modulatory effects up to) was roughly 600%. It also gave an EC50 (α2β3γ2 GABAA receptors) of 5.5 µM, an activity at 0.001 µM (α2β3γ2 GABAA receptors; read-out: efficacy, % of control current (GABA EC3-5 = 100%), α2β3γ2, 1 nM) of 100% and an activity at 0.01 µM (α2β3γ2 GABAA receptors; read-out: efficacy, % of control current (GABA EC3-5 = 100%), α2β3γ2, 10 nM) of 108 ± 4.2%. For the same compound, the activity at 0.1 µM (α2β3γ2 GABAA receptors; read-out: efficacy, % of control current (GABA EC3-5 = 100%), α2β3γ2, 100 nM) was 111 ± 2.3%, the activity at 0.3 µM (α2β3γ2 GABAA receptors; read-out: efficacy, % of control current (GABA EC3-5 = 100%), α2β3γ2, 300 nM) was 134% and the activity at 1 µM (α2β3γ2 GABAA receptors; read-out: efficacy, % of control current (GABA EC3-5 = 100%), α2β3γ2, 1 µM) was 137 ± 5.5%. It also gave an activity at 10 µM (α2β3γ2 GABAA receptors; read-out: efficacy, % of control current (GABA EC3-5 = 100%), α2β3γ2, 10 µM) of 470 ± 50%, an activity at 30 µM (α2β3γ2 GABAA receptors; read-out: efficacy, % of control current (GABA EC3-5 = 100%), α2β3γ2, 30 µM) of 580% and an EC50 (α3β3γ2 GABAA receptors; co-applied with GABA EC3-5) of 7.2 µM. For the same compound, the activity at 0.001 µM (α3β3γ2 GABAA receptors; [1]) was 100%, the activity at 0.1 µM (α3β3γ2 GABAA receptors; [3]) was 109 ± 1% and the activity at 10 µM (α3β3γ2 GABAA receptors; [6]) was 305 ± 71%. For the same compound, the EC50 (α6β3γ2 GABAA receptors; co-applied with GABA EC3-5) was greater than 5 µM, the activity at 0.001 µM (α6β3γ2 GABAA receptors; [1]) was 106 ± 6.6% and the activity at 0.01 µM (α6β3γ2 GABAA receptors; [2]) was 114 ± 8.8%. The activity at 0.1 µM (α6β3γ2 GABAA receptors; [3]) was 152 ± 12%, the activity at 1 µM (α6β3γ2 GABAA receptors; [5]) was 297 ± 16.2% and the activity at 10 µM (α6β3γ2 GABAA receptors; [6]) was greater than 1000%. For the same compound, the activity at 0.001 µM (α2β3 GABAA receptors; [1]) was 100%, the activity at 0.01 µM (α2β3 GABAA receptors; [2]) was 100% and the activity at 0.3 µM (α2β3 GABAA receptors; [4]) was 123 ± 4.9%. The activity at 1 µM (α2β3 GABAA receptors; [5]) was 127 ± 9.8%, the activity at 3 µM (α2β3 GABAA receptors; read-out: efficacy, % of control current (GABA EC3-5 = 100%), 3 µM) was 254 ± 4% and the EC50 (α2β3 GABAA receptors; log of EC50, sign as printed, read-out: LogEC50 (converted)) was 15.8 µM. The EC50 (α5β3 GABAA receptors) was 6.1 µM, the activity at 0.001 µM (α5β3 GABAA receptors; read-out: efficacy, % of control current (GABA EC3-5 = 100%), α5β3, 1 nM) was 97.3 ± 1.2% and the activity at 0.1 µM (α5β3 GABAA receptors; read-out: efficacy, % of control current (GABA EC3-5 = 100%), α5β3, 100 nM) was 110 ± 3.6%. It also gave an activity at 0.3 µM (α5β3 GABAA receptors; read-out: efficacy, % of control current (GABA EC3-5 = 100%), α5β3, 300 nM) of 108 ± 6.3%, an activity at 1 µM (α5β3 GABAA receptors; read-out: efficacy, % of control current (GABA EC3-5 = 100%), α5β3, 1 µM) of 132 ± 3.8% and an activity at 3 µM (α5β3 GABAA receptors; read-out: efficacy, % of control current (GABA EC3-5 = 100%), α5β3, 3 µM) of 190 ± 22.9%. The activity at 30 µM (α5β3 GABAA receptors; read-out: efficacy, % of control current (GABA EC3-5 = 100%), α5β3, 30 µM) was 232 ± 21.5%.
